Measured values reported in the NIST ThermoML archive (doi:10.1016/j.jct.2014.07.022).

Assay: xn = mol fraction of the nth substance listed
Settings: Gas, Spherical resonator

[C-]#[O+] [carbon monoxide] + N#N
Settings | speed of sound [m/s]
273.04 K, 5000 kPa, x1 = 0.04999 | 345.57
273.04 K, 7995 kPa, x1 = 0.04999 | 354.43
273.05 K, 99 kPa, x1 = 0.04999 | 336.94
273.05 K, 995 kPa, x1 = 0.04999 | 337.99
273.05 K, 2997 kPa, x1 = 0.04999 | 341.18
273.05 K, 3989 kPa, x1 = 0.04999 | 343.2
273.05 K, 5997 kPa, x1 = 0.04999 | 348.21
273.05 K, 6998 kPa, x1 = 0.04999 | 351.18
273.11 K, 1992 kPa, x1 = 0.04999 | 339.44
273.16 K, 996 kPa, x1 = 0.1002 | 338.03
273.17 K, 1993 kPa, x1 = 0.1002 | 339.46
273.17 K, 2993 kPa, x1 = 0.1002 | 341.21
273.17 K, 4989 kPa, x1 = 0.1002 | 345.57
273.17 K, 6000 kPa, x1 = 0.1002 | 348.25
273.18 K, 3997 kPa, x1 = 0.1002 | 343.25
273.18 K, 6994 kPa, x1 = 0.1002 | 351.2
273.18 K, 8019 kPa, x1 = 0.1002 | 354.55
273.18 K, 8970 kPa, x1 = 0.1002 | 357.95
273.2 K, 9955 kPa, x1 = 0.1002 | 361.78
273.24 K, 9010 kPa, x1 = 0.04999 | 358.19
273.24 K, 9993 kPa, x1 = 0.04999 | 361.99
324.94 K, 117 kPa, x1 = 0.1002 | 367.62
324.94 K, 5998 kPa, x1 = 0.1002 | 381.69
324.94 K, 10006 kPa, x1 = 0.1002 | 394.85
324.95 K, 1001 kPa, x1 = 0.1002 | 369.33
324.95 K, 3002 kPa, x1 = 0.1002 | 373.73
324.95 K, 3998 kPa, x1 = 0.1002 | 376.19
324.95 K, 8963 kPa, x1 = 0.1002 | 391.17
324.96 K, 1989 kPa, x1 = 0.1002 | 371.42
324.96 K, 5002 kPa, x1 = 0.1002 | 378.87
324.96 K, 6999 kPa, x1 = 0.1002 | 384.73
324.96 K, 7996 kPa, x1 = 0.1002 | 387.92
324.99 K, 8000 kPa, x1 = 0.04999 | 387.94
325 K, 1002 kPa, x1 = 0.04999 | 369.31
325 K, 1991 kPa, x1 = 0.04999 | 371.4
325.01 K, 99 kPa, x1 = 0.04999 | 367.57
325.01 K, 3003 kPa, x1 = 0.04999 | 373.73
325.01 K, 4998 kPa, x1 = 0.04999 | 378.87
325.03 K, 3999 kPa, x1 = 0.04999 | 376.21
325.03 K, 5995 kPa, x1 = 0.04999 | 381.72
325.05 K, 9002 kPa, x1 = 0.04999 | 391.36
325.13 K, 10001 kPa, x1 = 0.04999 | 394.94
325.23 K, 7007 kPa, x1 = 0.04999 | 384.9
